Assays:
OT1 CD8+ T-cells = test: Flow cytometry of surface activation and memory markers on in vitro cultured OT1 CD8+ T-cells; assay type: cell-based, mouse; details: 5 μM inhibitor day 0-3, flow cytometry on day 3 and 7
Procedure: Example 2. In vitro culture of splenocytes comprising CD8+ T-cells. OT1 splenocytes (as described in Example 1) were cultured for 3 days at a concentration of 10^6 cells per mL in RPMI medium (Gibco 61870-01) supplemented with 10% FCS, (Gibco 10270-106), 1% Penicillin/Streptomycin (P/S; Gibco 15070-063), 0.1% 13-mercaptoethanol, 1% HEPES (Gibco 15630-080), 1× Non-essential amino acids (Gibco 11140-035), 1% L-glutamine (Gibco 25030-081), 1 mM Sodium Pyruvate (Gibco 11360-039), 100 U/m1 hIL-2 (Glaxo-IMB) and 1 μg/ml ovalbumin N4 peptide (SIINFEKL). To evaluate the effects of IDH2 inhibition on T-cell differentiation, 5 μM of a small molecule IDH2 inhibitor (AG221 or AGI6780) or a DMSO solvent control was added during this 3-day culture period. At day 3, a fraction of the splenocytes was collected and the remaining cells were cultured for 4 additional days with 100 U/ml hIL-2 and 10 ng/ml hIL-7 (Peprotech 200-07) supplementation after washing out the inhibitors and the ovalbumine N4 peptide (FIG. 1). At day 3 and day 7, the activation and differentiation state of CD8+ T-cells was determined by gene expression analysis, flow cytometry and extracellular metabolic flux analyses (see Example 3).
Cells were incubated in a live/dead stain (Fixable aqua dead cell stain kit, Invitrogen) followed by an incubation with different antibody panels.
Antibody panel to determine the differentiation and activation state of in vitro cultured T-cells (see Examples 2 and 4): anti-CD8-PE-texas-Red, anti-CD62L-FITC, anti-CD127-PE, anti-CD27-PerCP-Cy5.5, anti-CD71-PE-Cy7, anti-CD44-APC-Cy7, anti-CD98-APC, anti-CD25-Pacific blue (BD Pharmingen and eBioscience, San Diego, Calif., USA). All those antigens are surface molecules. Cells were gated on living single CD8+ cells before analysis of activation and memory marker expression. For the unstained control, cells were stained with the live/dead stain and anti-CD8-PE-texas-Red.
Cells were acquired on LSR-II flow cytometers from the flow cytometry facility of UNIL and data were analyzed with FlowJo™ 10 software. Antibodies were purchased from BD Phamingen (San Diego, Calif., USA), eBioscience (San Diego, Calif., USA, and Biolegend (San Diego, Calif., USA).

[1] = test system: histone H3 (H3K4-3Me, H3K27-Ac) in OT1 T-cells; test: Western blot of histone H3 modifications in OT1 T-cells; assay type: cell-based, mouse; details: day 7, 5 μM day 0-3, western blot, versus DMSO
Procedure: Methods: OT1 splenocytes were activated and cultured with 5 μM AG221 or DMSO as described in Example 2. After 3 days, the cells were washed and the IDH2 inhibitor was washed out as well. The cells were then cultured for an additional 4 days in the absence of AG221. At day 7, the cells were collected and washed once with PBS. 50′000 cells were collected for ATAC-seq while the remaining cell pellet was lysed in extraction buffer (20 mM Tris HCl, 150 mM NaCl, 1% Triton X-100, 10% glycerol, 5 mM EDTA) supplemented with Complete Mini protease inhibitor (Roche) for wester blotting.
For western blotting, an equal amount of protein (as measure by the BCA protein assay kit, Thermo Scientific) was size-separated on a 12.5% polyacrylamide gel and transferred to a 0.2 μm nitrocellulose membrane (Bio-Rad). The following antibodies were used: β-Actin (AC-74) from Sigma Aldrich, H3K4-trimethyl (C42D8) and H3K27-acetyl (D5E4) from Cell Signaling, and appropriate HRP-labelled secondary antibodies (Santa Cruz). The signal was visualized with ECLTM Select Western Blotting Detection Reagent from Sigma Aldrich or SuperSignal West Femto Maximum Sensitivity Substrate from Thermo Scientific and acquired by the Fusion FX from Vilber.

human CD8+ T-cells = test: Cytokine expression after PMA and Ionomycin restimulation of human CBMC-derived T-cells; assay type: cell-based; details: day 11 cells, inhibitors washed out, PMA and ionomycin 4 hours
Procedure: (§1) Methods: Mononuclear Cells were isolated from fresh umbilical cord blood on a Percoll Gradient (CBMCs). 10^4 CBMC's were seeded per well in a round bottom 96-well plate in RPMI with 10% human serum, and activated with (magnetic) αCD3/CD28 at a 1:2 cell:bead ratio and 300 U/ml rhIL-2, in the presence of 5 μM AG221 or DMSO, or 1 μM MK2206 (AKT inhibitor). After 11 days of culture, CD62L expression was analyzed by flow cytometry on a fraction of the cells (FIG. 15A). The other cells were washed 2 times and placed in a magnet to remove the inhibitors and the αCD3/CD28 beads. The cells were then rested for 4 hours before restimulating them for 4 hours with 1 ng/ml Phorbol 12-Myristate 13-Acetate (PMA, a PKC activator) and 50 μg/ml Ionomycin (a Ca^2+ ionophore, activating NF-KB and NFAT) in the presence of 50 μ/ml golgi inhibitor (Brefeldin A, BFA), allowing for the measurement of intracellular accumulation of different cytokines by flow cytometry.

[2] = test system: human CD8+ T-cells from umbilical cord blood; test: CD62L flow cytometry of human cord blood mononuclear cells (CBMC); assay type: cell-based
Procedure: as §1

Question: For `CC(C)(O)CNc1nc(Nc2ccnc(C(F)(F)F)c2)nc(-c2cccc(C(F)(F)F)n2)n1` [AG221, 2-methyl-1-[[4-[6-(trifluoromethyl)pyridin-2-yl]-6-[[2-(trifluoromethyl)pyridin-4-yl]amino]-1,3,5-triazin-2-yl]amino]propan-2-ol], which “CD62L surface expression compared to DMSO” value (OT1 CD8+ T-cells) is on record?
Answer: Its value is “increased”.

Question: What about the “other surface markers (CD25, CD44, CD71, CD98, CD27, CD127) compared to DMSO” value (OT1 CD8+ T-cells) of the same molecule?
Answer: Its value is “generally unchanged”.

Question: What about the “acetylation of lysine residue 27 of histone H3” value [1] of the same molecule?
Answer: The value was “increased”.

Question: What about the “trimethylation of lysine residue 4 of histone H3” value [1] of the same molecule?
Answer: Its value is “increased”.

Question: What about the “TNF expression upon restimulation” value (human CD8+ T-cells) of the same molecule?
Answer: Its value is “unaffected”.

Question: What about the “expression of effector cytokine IFNγ upon restimulation” value (human CD8+ T-cells) of the same molecule?
Answer: Its value is “significant upregulation”.

Question: And the “production of IL-2 upon restimulation” value (human CD8+ T-cells)?
Answer: Its value is “unaltered”.

Question: What about the “CD62L expression in human CD8+ T-cells” value ([2]; day 11, 5 μM, versus DMSO) of the same molecule?
Answer: Its value is “strong upregulation”.

Question: And the “CD8+ cells expressing CD62L” value ([2]; day 11, AG221 5 μM, MK2206 1 μM, DMSO control about 35%)?
Answer: Its value is “about 75%”.

From US20220325242A1, “IDH2 INHIBITION FOR PRODUCING T-CELLS AND B-CELLS WITH A MEMORY PHENOTYPE” (Universite de Lausanne, priority 2019, published 2022)
